Assay results from patent US12606561B2, “Substituted pyrazolo[1,5-a][1,3,5]triazines as CDK inhibitors” (QURIENT CO., LTD., priority 2018, dated 2026).
Like-named read-outs stand apart in the source and are kept apart here.

What was measured:
Test in all cases: In vitro IC50 profile for CDKs family kinase (33PanQinase Activity Assay, ProQinase)
Format in all cases: biochemical
[1] = biological target: T1, 28 CDKs family protein kinases (Homo sapiens, UniProt Q00536); settings: CDK16/CycY; read-out: CDK7 selectivity profile in CDKs family, IC50
T1 construct: purchased ProQinase GmbH; host or cells: Sf9 insect cells or E. coli
T1 sequence (Q00536 whole entry): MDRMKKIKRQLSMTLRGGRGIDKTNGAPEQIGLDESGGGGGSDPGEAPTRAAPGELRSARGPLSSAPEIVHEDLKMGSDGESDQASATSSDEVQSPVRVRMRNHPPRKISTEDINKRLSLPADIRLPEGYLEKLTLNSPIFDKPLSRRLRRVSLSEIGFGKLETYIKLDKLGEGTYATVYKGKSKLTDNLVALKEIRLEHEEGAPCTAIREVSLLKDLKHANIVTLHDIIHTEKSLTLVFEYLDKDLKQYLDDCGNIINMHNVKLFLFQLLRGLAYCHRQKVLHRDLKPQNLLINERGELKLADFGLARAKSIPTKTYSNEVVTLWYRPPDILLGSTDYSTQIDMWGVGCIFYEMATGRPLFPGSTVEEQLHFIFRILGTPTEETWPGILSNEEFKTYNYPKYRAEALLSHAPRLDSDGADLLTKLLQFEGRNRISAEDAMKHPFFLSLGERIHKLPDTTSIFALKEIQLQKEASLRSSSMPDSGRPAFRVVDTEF
T1 sequence (Q8ND76 whole entry partner): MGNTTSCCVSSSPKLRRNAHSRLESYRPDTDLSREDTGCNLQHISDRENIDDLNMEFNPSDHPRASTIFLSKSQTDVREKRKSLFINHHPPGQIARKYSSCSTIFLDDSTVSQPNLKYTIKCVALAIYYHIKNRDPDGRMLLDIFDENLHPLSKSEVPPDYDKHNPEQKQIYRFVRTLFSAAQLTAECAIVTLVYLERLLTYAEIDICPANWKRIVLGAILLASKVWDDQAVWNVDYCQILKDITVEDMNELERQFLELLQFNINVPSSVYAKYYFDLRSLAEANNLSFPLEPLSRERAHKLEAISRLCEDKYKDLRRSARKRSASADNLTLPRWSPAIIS
Method: (§1) The IC50 profile of compound 11 was determined using 28 CDKs family protein kinases through ProQinase GmbH (Freiburg, Germany). All the protocol and materials had been provided by ProQinase GmbH. Briefly, in the process, 90 μl H2O were added to each well of a compound dilution plate. To minimize potential precipitation, the H2O was added to the plate only a few minutes before the transfer of the compound solutions into the assay plates. The plate was shaken thoroughly, resulting in a “compound dilution plate/10% DMSO”. The compound dilution plate(s) were discarded at the end of the working day. For the assays (see below), 5 μl solution from each well of the compound dilution plate were transferred into the assay plates. The final volume of the assay was 50 μl. All compounds were tested at 10 final assay concentrations in the range from 1×10^−05 M to 3×10^−10 M. The final DMSO concentration in the reaction cocktails was 1% in all cases. All protein kinases provided by ProQinase were expressed in Sf9 insect cells or in E. coli as recombinant GST-fusion proteins or His-tagged proteins, either as full-length or enzymatically active fragments. All kinases were produced from human cDNAs and purified by either GSH affinity chromatography or immobilized metal affinity chromatography. The purity of the protein kinases was examined by SDS-PAGE/Coomassie staining, the identity was checked by mass spectroscopy. Kinases from external vendors, Carna Biosciences Inc.; Invitrogen Corp.; and Millipore Corp., were expressed, purified and quality-controlled by virtue of the vendors readings. A radiometric protein kinase assay (33PanQinase® Activity Assay) was used for measuring the kinase activity of the 28 protein kinases. All kinase assays were performed in 96-well FlashPlates™ from PerkinElmer (Boston, MA, USA) in a 50 μl reaction volume. The reaction cocktails were incubated at 30° C. for 60 minutes. The reaction was stopped with 50 μl of 2% (v/v) H3PO4, plates were aspirated and washed two times with 200 μl 0.9% (w/v) NaCl. Incorporation of ^33Pi was determined with a microplate scintillation counter (Microbeta, Wallac). All assays were performed with a BeckmanCoulter/SAGIAN™ Core System. As part of the data evaluation the low control value from a particular plate was subtracted from the high control value as well as from all 80 “compound values” of the corresponding plate. The residual activity (in %) for each well of a particular plate was calculated by using the following formula: Res. Activity (%)=100×[(cpm of compound−low control)/(high control−low control)].

[2] = biological target: T2, 28 CDKs family protein kinases (Homo sapiens, UniProt P24941); settings: read-out: CDK7 selectivity profile in CDKs family, IC50
T2 construct: purchased ProQinase GmbH; host or cells: Sf9 insect cells or E. coli
Method: as §1

[3] = biological target: T3, 28 CDKs family protein kinases (Homo sapiens, UniProt Q00526); settings: read-out: CDK7 selectivity profile in CDKs family, IC50
T3 construct: purchased ProQinase GmbH; host or cells: Sf9 insect cells or E. coli
T3 sequence (Q00526 whole entry): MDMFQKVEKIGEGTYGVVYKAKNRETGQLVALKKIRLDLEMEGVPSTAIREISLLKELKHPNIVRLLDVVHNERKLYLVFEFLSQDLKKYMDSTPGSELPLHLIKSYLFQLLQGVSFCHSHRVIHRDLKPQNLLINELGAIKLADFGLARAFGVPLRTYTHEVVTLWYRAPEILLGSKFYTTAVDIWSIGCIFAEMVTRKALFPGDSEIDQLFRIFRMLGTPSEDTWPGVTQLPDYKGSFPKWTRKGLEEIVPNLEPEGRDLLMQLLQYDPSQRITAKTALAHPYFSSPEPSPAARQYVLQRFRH
T3 sequence (P24863 whole entry partner): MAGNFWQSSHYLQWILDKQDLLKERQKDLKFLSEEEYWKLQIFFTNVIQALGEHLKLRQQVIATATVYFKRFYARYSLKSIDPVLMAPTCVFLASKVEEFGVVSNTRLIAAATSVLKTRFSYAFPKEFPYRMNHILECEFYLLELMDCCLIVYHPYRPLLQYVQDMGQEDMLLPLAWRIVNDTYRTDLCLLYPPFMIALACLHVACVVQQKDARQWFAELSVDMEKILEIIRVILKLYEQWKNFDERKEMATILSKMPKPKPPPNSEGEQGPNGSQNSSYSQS
Method: as §1

[4] = biological target: T4, 28 CDKs family protein kinases (Homo sapiens, UniProt Q8IZL9); settings: read-out: CDK7 selectivity profile in CDKs family, IC50
T4 construct: purchased ProQinase GmbH; host or cells: Sf9 insect cells or E. coli
Method: as §1

[5] = biological target: T5, 28 CDKs family protein kinases (Homo sapiens, UniProt Q00537); settings: CDK17/p35NCK; read-out: CDK7 selectivity profile in CDKs family, IC50
T5 construct: purchased ProQinase GmbH; host or cells: Sf9 insect cells or E. coli
T5 sequence (Q00537 whole entry): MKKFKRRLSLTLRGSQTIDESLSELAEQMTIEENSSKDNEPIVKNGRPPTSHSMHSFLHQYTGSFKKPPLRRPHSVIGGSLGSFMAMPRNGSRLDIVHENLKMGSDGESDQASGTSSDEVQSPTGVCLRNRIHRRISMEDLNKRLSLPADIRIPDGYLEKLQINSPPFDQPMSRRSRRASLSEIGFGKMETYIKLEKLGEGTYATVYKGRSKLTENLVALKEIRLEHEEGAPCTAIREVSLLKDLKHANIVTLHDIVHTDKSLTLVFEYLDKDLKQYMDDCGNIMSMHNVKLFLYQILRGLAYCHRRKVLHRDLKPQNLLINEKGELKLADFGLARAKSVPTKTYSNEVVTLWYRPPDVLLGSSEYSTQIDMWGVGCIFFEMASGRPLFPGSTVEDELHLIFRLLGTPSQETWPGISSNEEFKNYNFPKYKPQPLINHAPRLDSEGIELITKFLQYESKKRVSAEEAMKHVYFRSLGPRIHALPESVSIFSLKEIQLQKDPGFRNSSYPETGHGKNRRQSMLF
T5 sequence (Q15078 whole entry partner): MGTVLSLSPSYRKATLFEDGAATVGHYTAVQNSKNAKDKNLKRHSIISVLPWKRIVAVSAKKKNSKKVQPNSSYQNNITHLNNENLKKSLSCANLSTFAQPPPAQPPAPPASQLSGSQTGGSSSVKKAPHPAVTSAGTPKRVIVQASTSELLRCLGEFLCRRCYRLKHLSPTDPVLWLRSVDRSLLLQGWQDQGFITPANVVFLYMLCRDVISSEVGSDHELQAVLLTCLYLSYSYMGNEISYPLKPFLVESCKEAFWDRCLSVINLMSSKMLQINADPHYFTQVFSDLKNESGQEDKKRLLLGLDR
Method: as §1

[6] = biological target: T6, 28 CDKs family protein kinases (Homo sapiens, UniProt P11802); settings: read-out: CDK7 selectivity profile in CDKs family, IC50
T6 construct: purchased ProQinase GmbH; host or cells: Sf9 insect cells or E. coli
Method: as §1

[7] = biological target: T7, 28 CDKs family protein kinases (Homo sapiens, UniProt Q00534); settings: read-out: CDK7 selectivity profile in CDKs family, IC50
T7 construct: purchased ProQinase GmbH; host or cells: Sf9 insect cells or E. coli
Method: as §1

[8] = biological target: T8, 28 CDKs family protein kinases (Homo sapiens, UniProt Q14004)
T8 construct: purchased ProQinase GmbH; host or cells: Sf9 insect cells or E. coli
T8 sequence (Q14004 whole entry): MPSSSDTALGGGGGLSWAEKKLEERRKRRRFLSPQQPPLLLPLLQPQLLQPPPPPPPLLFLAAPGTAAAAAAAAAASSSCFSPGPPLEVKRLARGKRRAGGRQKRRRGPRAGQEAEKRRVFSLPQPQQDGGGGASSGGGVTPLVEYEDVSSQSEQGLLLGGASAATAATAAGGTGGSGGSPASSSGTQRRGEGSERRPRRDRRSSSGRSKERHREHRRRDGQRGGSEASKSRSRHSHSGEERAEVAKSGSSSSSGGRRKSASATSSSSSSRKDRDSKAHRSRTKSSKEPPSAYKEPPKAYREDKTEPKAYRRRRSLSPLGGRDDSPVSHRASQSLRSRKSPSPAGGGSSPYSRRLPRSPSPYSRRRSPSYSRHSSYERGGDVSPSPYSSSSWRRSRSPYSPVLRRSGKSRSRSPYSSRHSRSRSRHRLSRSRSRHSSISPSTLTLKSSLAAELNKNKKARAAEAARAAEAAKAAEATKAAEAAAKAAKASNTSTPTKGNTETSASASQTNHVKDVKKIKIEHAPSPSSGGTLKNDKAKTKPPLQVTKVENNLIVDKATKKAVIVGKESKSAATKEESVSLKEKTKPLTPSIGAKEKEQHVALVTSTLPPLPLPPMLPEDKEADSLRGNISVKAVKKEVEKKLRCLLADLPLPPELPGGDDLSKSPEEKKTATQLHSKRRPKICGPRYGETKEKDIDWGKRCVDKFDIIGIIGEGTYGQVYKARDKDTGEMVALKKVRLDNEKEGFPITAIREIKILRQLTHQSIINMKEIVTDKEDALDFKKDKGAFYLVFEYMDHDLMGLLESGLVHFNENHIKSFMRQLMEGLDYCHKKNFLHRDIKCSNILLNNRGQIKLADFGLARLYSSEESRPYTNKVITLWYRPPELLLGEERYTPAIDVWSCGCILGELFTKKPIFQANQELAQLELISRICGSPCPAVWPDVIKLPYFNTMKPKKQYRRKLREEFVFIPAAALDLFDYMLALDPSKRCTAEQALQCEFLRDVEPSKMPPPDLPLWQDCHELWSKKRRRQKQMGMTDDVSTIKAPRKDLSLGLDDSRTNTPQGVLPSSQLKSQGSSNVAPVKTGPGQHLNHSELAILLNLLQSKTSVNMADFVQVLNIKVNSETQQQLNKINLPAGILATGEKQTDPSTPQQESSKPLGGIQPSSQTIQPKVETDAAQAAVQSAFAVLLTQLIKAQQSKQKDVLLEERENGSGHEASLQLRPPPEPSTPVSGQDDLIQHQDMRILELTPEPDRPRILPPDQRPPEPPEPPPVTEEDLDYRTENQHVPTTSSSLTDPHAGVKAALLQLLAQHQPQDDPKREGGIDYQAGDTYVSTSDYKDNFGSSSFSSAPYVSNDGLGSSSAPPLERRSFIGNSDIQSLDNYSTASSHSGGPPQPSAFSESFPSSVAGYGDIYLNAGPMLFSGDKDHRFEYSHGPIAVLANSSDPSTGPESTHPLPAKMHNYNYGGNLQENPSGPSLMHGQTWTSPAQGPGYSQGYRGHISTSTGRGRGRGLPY
T8 sequence (O75909 whole entry partner): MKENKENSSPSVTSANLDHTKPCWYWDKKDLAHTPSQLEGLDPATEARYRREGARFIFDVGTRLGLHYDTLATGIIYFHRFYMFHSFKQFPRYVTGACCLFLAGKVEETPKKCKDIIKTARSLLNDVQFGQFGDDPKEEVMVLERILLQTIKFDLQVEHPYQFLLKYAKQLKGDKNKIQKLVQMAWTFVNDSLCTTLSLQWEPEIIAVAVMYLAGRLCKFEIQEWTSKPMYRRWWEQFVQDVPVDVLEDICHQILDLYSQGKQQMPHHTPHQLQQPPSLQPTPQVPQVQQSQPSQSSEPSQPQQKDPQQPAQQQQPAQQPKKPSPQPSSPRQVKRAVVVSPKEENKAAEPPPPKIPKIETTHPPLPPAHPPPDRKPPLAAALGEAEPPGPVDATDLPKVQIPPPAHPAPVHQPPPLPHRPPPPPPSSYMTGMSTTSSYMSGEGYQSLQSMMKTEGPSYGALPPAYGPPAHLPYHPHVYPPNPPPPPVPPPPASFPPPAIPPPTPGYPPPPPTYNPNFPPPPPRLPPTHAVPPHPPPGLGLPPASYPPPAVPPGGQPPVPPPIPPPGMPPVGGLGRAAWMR
Method: as §1

[9] = biological target: T9, 28 CDKs family protein kinases (Homo sapiens, UniProt P50750); settings: read-out: CDK7 selectivity profile in CDKs family, IC50
T9 construct: purchased ProQinase GmbH; host or cells: Sf9 insect cells or E. coli
Method: as §1

[10] = biological target: T10, 28 CDKs family protein kinases (Homo sapiens, UniProt Q9NYV4); settings: CDK12wt/CycK; read-out: CDK7 selectivity profile in CDKs family, IC50
T10 construct: purchased ProQinase GmbH; host or cells: Sf9 insect cells or E. coli
Method: as §1

[11] = biological target: T11, 28 CDKs family protein kinases (Homo sapiens, UniProt Q07002); settings: CDK18/CycY; read-out: CDK7 selectivity profile in CDKs family, IC50
T11 construct: purchased ProQinase GmbH; host or cells: Sf9 insect cells or E. coli
T11 sequence (Q07002 whole entry): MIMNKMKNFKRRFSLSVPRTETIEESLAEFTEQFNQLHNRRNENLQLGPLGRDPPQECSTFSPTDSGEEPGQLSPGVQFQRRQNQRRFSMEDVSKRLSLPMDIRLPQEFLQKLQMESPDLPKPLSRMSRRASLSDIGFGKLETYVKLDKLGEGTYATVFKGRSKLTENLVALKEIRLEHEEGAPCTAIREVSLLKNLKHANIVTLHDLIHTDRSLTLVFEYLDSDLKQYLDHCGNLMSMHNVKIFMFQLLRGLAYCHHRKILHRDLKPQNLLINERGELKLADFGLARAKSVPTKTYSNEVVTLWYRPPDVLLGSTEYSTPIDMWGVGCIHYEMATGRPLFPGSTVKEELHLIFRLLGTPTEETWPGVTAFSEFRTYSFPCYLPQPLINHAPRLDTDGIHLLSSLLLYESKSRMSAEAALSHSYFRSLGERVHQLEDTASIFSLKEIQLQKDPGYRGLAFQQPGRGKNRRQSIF
T11 sequence (Q8ND76 whole entry partner): as the sequence (Q8ND76 whole entry partner) above
Method: as §1

Measured: IC50

CC(C)c1cnn2c(NCc3ccccc3-c3nccc4cc(NC(=O)/C=C/CN(C)C)ccc34)nc(N3CCC(N)CC3)nc12 [Compound 11]
> 10 µM: [1] | [2]; CDK2/CycA2 | [2]; CDK2/CycD1 | [2]; CDK2/CycE1 | [3]; CDK3/CycC | [3]; CDK3/CycE1 | [4]; CDK20/CycH | [4]; CDK20/CycT1 | [5] | [6]; CDK4/CycD1 | [6]; CDK4/CycD2 | [6]; CDK4/CycD3 | [7]; CDK6/CycD1 | [7]; CDK6/CycD2 | [7]; CDK6/CycD3 | [8] | [9]; CDK9/CycK | [9]; CDK9/CycT1 | [10] | [11]
